Measured values reported in patent US20010047099A1, “4-aminopicolinates and their use as herbicides” (priority 2000, published 2001).
Read-outs that look alike come from different tables or passages of the source.

What was measured:
[1] = test system: Canada thistle (Cirsium arvense); assay: Range & Pasture Crop Testing (postemergence track sprayer); format: in vivo; details: for GR80 CIRAR: Table 10, clover pasture, postemergence
In short: (§1)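 Postemergence track-sprayer application at 187 L/ha, compounds formulated in 97:3 acetone:DMSO with 0.25% X-77, five rates (X serially diluted to 1/16×). Visual percent control (0–100 scale, burn down) rated 3 weeks after treatment; GR50/GR80 derived by probit analysis.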

[2] = test system: field bindweed (Convolvulus arvensis); assay: as above; format: in vivo; details: for GR80 CONAR: Table 10, clover pasture, postemergence
In short: as §1

[3] = test system: giant foxtail (Setaria faberi); assay: Preemergence herbicidal activity; format: in vivo; details: pre-emergence, 504 h
In short: (§2)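 Pre-emergence soil spray; loam:sand 70:30, pH ~8.1. Vehicle: acetone/DMSO 97:3 stock diluted in water + 0.1% Tween 155; controls sprayed with aqueous mixture. Greenhouse 23-29° C day/22-28° C night, 15 hr photoperiod. Visual % injury vs untreated at 3 wk.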

[4] = test system: wild oats (Avena fatua); assay: Preemergence herbicidal activity; format: in vivo; details: pre-emergence, 504 h
In short: as §2

[5] = test system: barnyardgrass (Echinochloa crus-galli); assay: Preemergence herbicidal activity; format: in vivo; details: pre-emergence, 504 h
In short: as §2

[6] = test system: blackgrass (Alopecurus myosuroides); assay: Preemergence herbicidal activity; format: in vivo; details: pre-emergence, 504 h
In short: as §2

[7] = test system: wild poinsettia (Euphorbia heterophylla); assay: Preemergence herbicidal activity; format: in vivo; details: pre-emergence, 504 h
In short: as §2

[8] = Table 7, rate 35 g/Ha, after 3 weeks, read-out: PREEMERGENCE HERBICIDAL ACTIVITY % CONTROL SETFA
[9] = Table 7, rate 35 g/Ha, after 3 weeks, read-out: PREEMERGENCE HERBICIDAL ACTIVITY % CONTROL AVEFA
[10] = Table 7, rate 35 g/Ha, after 3 weeks, read-out: PREEMERGENCE HERBICIDAL ACTIVITY % CONTROL ECHCG
[11] = Table 7, rate 35 g/Ha, after 3 weeks, read-out: PREEMERGENCE HERBICIDAL ACTIVITY % CONTROL EPHHL
[12] = Table 7, rate 35 g/Ha, after 3 weeks, read-out: PREEMERGENCE HERBICIDAL ACTIVITY % CONTROL ALOMY

Row | melting point | Structure (SMILES) | GR80 CIRAR [1] | GR80 CONAR [2] | inhibition at 35 g/ha [3, 8] | inhibition at 35 g/ha [4, 9] | inhibition at 35 g/ha [5, 10] | inhibition at 35 g/ha [7, 11] | inhibition at 35 g/ha [6, 12] | further results
1 |  | Nc1cc(Cl)nc(C(=O)O)c1Cl [Compound 1, 4-Amino-3,6-dichloropyridine-2-carboxylic acid] |  |  |  |  |  |  |  | Post-emergent GR80 CIRAR ([1]; Table 8, salts of Compound 1, 3 week evaluation): 47 g/Ha; Post-emergent GR80 CONAR ([2]; Table 8, salts of Compound 1, dose for 80 percent control): 59 g/Ha; inhibition at 35 g/ha ([3]; read-out: PR[…] % CONTROL SETFA, Table 7, rate 35 g/Ha, after 3 weeks): 40%; inhibition at 35 g/ha ([4]; read-out: PR[…] % CONTROL AVEFA, Table 7, rate 35 g/Ha, after 3 weeks): 37%; inhibition at 35 g/ha ([5]; read-out: PR[…] % CONTROL ECHCG, Table 7, rate 35 g/Ha, after 3 weeks): 17%; inhibition at 35 g/ha ([6]; read-out: PR[…] % CONTROL ALOMY, Table 7, rate 35 g/Ha, after 3 weeks): 36%; inhibition at 35 g/ha ([7]; read-out: PR[…] % CONTROL EPHHL, Table 7, rate 35 g/Ha, after 3 weeks): 62%
2 | 134 to 135 °C | COC(=O)c1nc(Cl)cc(N)c1Cl [Compound 3, methyl 4-amino-3,6-dichloropyridine-2-carboxylate] | <17.5 g/ha | 127.7 g/ha | 40% | 10% | 20% | 20% |  | Post-emergent Evaluation - % control CIRAR ([1]; Table 9, rate 70 g/Ha, 3 weeks after treatment): 90%
3 | 98 to 99 °C | CCOC(=O)c1nc(Cl)cc(N)c1Cl [Compound 4, ethyl 4-amino-3,6-dichloropyridine-2-carboxylate] | <17.5 g/ha | 59 g/ha |  |  |  |  |  | 
4 | 182 to 183 °C | Nc1cc(Br)nc(C(=O)O)c1Cl [Compound 14, 4-Amino-6-bromo-3-chloropyridine-2-carboxylic acid] |  |  | 98% | 40% | 40% | 70% | 60% | 
5 | 214 °C (dec.) | Nc1c(F)c(Cl)nc(C(=O)O)c1Cl [Compound 19, 4-Amino-3,6-dichloro-5-fluoropyridine-2-carboxylic acid] |  |  |  |  |  |  |  | 
6 | 154 to 156 °C | COc1c(C(=O)O)nc(Br)c(Cl)c1N [Compound 42, 4-Amino-6-bromo-5-chloro-3-methoxypyridine-2-carboxylic acid] |  |  | 30% | 30% | 30% | 40% | 30% | 
